Experimental data taken from patent US8367873B2, “Phenyl-substituted bicyclooctane-1,3-dione derivatives” (Bayer Cropscience AG, priority 2008, dated 2013).

Tests used:
Type in all cases: in vivo
Echinocloa crus-galli = assay: Herbicidal post-emergence action; settings: post-emergence method; for herbicidal effect against ECHCG (Echinochloa crus-galli): 80 g/ha; for pest or weed control at 80 g/ha: Echinochloa crus-galli, 504 h, read-out: herbicidal effect against ECHCG (Echinochloa crus-galli)
Description: (§1) Seeds of monocotylidonous and dicotylidonous weed and crop plants are placed in sandy loam in wood fibre pots, covered with soil and cultivated in a greenhouse under good growth conditions. Two to three weeks after sowing, the test plants are treated at the one-leaf stage. The test compounds, formulated as wettable powders (WP), are then with a water application rate of 600 l/ha (converted), with 0.2% of wetting agent added, sprayed onto the green parts of the plants in different amounts. After the test plants have been kept in the greenhouse under optimum growth conditions for about three weeks, the effect of the preparations is assessed visually in comparison to untreated controls (herbicidal effect in percent: 100% effect=the plants have died, 0% effect=like control plants).

Setaria viridis = assay: Herbicidal post-emergence action; settings: post-emergence method; for herbicidal effect against SETVI (Setaria viridis): 80 g/ha; for pest or weed control at 80 g/ha: Setaria viridis, 504 h, read-out: herbicidal effect against SETVI (Setaria viridis)
Description: as §1

Lolium multiflorum = assay: Herbicidal post-emergence action; settings: post-emergence method; for herbicidal effect against LOLMU (Lolium multiflorum): 80 g/ha; for pest or weed control at 80 g/ha: Lolium multiflorum, 504 h, read-out: herbicidal effect against LOLMU (Lolium multiflorum)
Description: as §1

Alopecurus myosuroides = assay: Herbicidal post-emergence action; settings: post-emergence method; for herbicidal effect against ALOMY (Alopecurus myosuroides): 80 g/ha; for pest or weed control at 80 g/ha: Alopecurus myosuroides, 504 h, read-out: herbicidal effect against ALOMY (Alopecurus myosuroides)
Description: as §1

[1] = system: monocotylidonous and dicotylidonous weed and crop plants; assay: Herbicidal post-emergence action (other test plants); settings: post-emergence method; for herbicidal effect against AVEFA (Avena fatua): 80 g/ha; for pest or weed control at 80 g/ha: 504 h, Avena fatua, read-out: herbicidal effect against AVEFA (Avena fatua)
Description: as §1

SMILES	herbicidal effect against ECHCG (Echinochloa crus-galli) (Echinocloa crus-galli) [%]	herbicidal effect against SETVI (Setaria viridis) (Setaria viridis) [%]	herbicidal effect against LOLMU (Lolium multiflorum) (Lolium multiflorum) [%]	herbicidal effect against ALOMY (Alopecurus myosuroides) (Alopecurus myosuroides) [%]	herbicidal effect against AVEFA (Avena fatua) [1] [%]	pest or weed control at 80 g/ha (Echinocloa crus-galli) [%]	pest or weed control at 80 g/ha (Setaria viridis) [%]	pest or weed control at 80 g/ha (Lolium multiflorum) [%]	pest or weed control at 80 g/ha (Alopecurus myosuroides) [%]	pest or weed control at 80 g/ha [1] [%]
Cc1cc(C)c(C2=C(OC(=O)C(C)(C)CCl)C3CC(=O)CC3C2=O)c(C)c1 (stereo not shown) [I-b-52]	100	90	0	0	0					
C#CCON=C1CC2C(=O)C(c3c(C)cc(C)cc3C)=C(OC(=O)C(C)C)C2C1 (stereo not shown) [I-b-58]	80	20	60	0	0					
COCC(=O)OC1=C(c2c(C)cc(C)cc2C)C(=O)C2CC(=O)CC12 (stereo not shown) [I-b-53]	100	90	0	20	0					
CCc1cc(C)cc(CC)c1C1=C(O)[C@H]2CC3(C[C@H]2C1=O)SCCS3 (relative stereo) [I-a-16]	90	80	80	30	30					
Cc1cc(C)c(C2=C(OC(=O)C(C)(C)C)C3CC(=O)CC3C2=O)c(C)c1 (stereo not shown) [I-b-60]	100	80	0	0	0					
C#CCON=C1CC2C(=O)C(c3c(C)cc(C)cc3C)=C(OC(=O)OC)C2C1 (racemic) [I-c-59]	100	20	60	0	0					
CCc1cc(C)cc(CC)c1C1=C(O)[C@H]2CC(=O)C[C@H]2C1=O (stereo in doubt) [I-a-4, 2-(2,6-diethyl-4-methylphenyl)-3-hydroxy-3a,4,6,6a-tetrahydropentalene-1,5-dione]						100	100	20	60	30
CCOC(=O)OC1=C(c2c(CC)cc(C)cc2CC)C(=O)C2CC(=NOC(C)(C)C)CC12 (stereo not shown) [I-c-38]	80	30	90	70	0					
CCOC(=O)OC1=C(c2c(C)cc(C)cc2C)C(=O)C2CC(=O)CC12 (racemic) [I-c-58]	100	100	0	0	0					
CCc1cc(C)cc(CC)c1C1=C(OC(=O)COC)C2CC3(CC2C1=O)SCCCS3 (stereo not shown) [I-b-10]	90	70	70	90	20					
CCC(C)(C)C(=O)OC1=C(c2c(C)cc(C)cc2C)C(=O)C2CC(=O)CC12 (stereo not shown) [I-b-55]	90	90	0	0	0					
CCc1cc(C)cc(CC)c1C1=C(O)C2CC3(CC2C1=O)OCCCS3 (mixture of isomers) [I-a-20]	100	90	100	90	80					
CCc1cc(C)cc(CC)c1C1=C(O)[C@H]2CC3(C[C@H]2C1=O)SCCCS3 (relative stereo) [I-a-17]	90	80	90	30	40					
CCOC(=O)OC1=C(c2c(CC)cc(C)cc2CC)C(=O)C2CC(=O)CC12 (stereo not shown) [I-c-17]						100	90	40	30	0
CCc1cc(C)cc(CC)c1C1=C(OC(=O)OC)C2CC(=O)CC2C1=O (stereo not shown) [I-c-42]	100	100	0	0	0					
CCc1cc(C)cc(CC)c1C1=C(O)[C@H]2CC3(C[C@H]2C1=O)SCCCS3 [I-f-1]						90	80	90	80	40
CCC(=O)OC1=C(c2c(CC)cc(C)cc2CC)C(=O)C2CC3(CC12)SCCCS3 (stereo not shown) [I-b-9]	90	40	40	90	0					
C#CCON=C1C[C@@H]2C(O)=C(c3c(CC)cc(C)cc3CC)C(=O)[C@@H]2C1 (relative stereo) [I-a-33]	100	90	100	100	0					
Cc1cc(C)c(C2=C(OC(=O)C(C)C)C3CC(=O)CC3C2=O)c(C)c1 (stereo not shown) [I-b-54]	100	100	0	20	0					
CCc1cc(C)cc(C)c1C1=C(OC(=O)C(C)(C)C)C2CC(=O)CC2C1=O (stereo not shown) [I-b-71]	100	100	0	0	0					
CCc1cc(C)cc(CC)c1C1=C(OC(=O)OC)C2CC3(CC2C1=O)SCCCS3 (stereo not shown) [I-c-20]	100	100	100	90	90					
CCOC(=O)OC1=C(c2c(C)cc(C)cc2C)C(=O)C2CC3(CC12)OCC(C)CO3 (mixture of isomers) [I-c-48]	90	80	100	20	20					
CCC(=O)OC1=C(c2c(C)cc(C)cc2C)C(=O)C2CC3(COC(C)(C)O3)CC12 (mixture of isomers) [I-b-50]	90	80	100	100	0					
